“And” between values parts separate entries of the source, which are not always exact repeats. Identical values can stand only once.

Consider five molecules from the supplement of paper PMC4862054.

For assay [1], the system named is MDA-MB-436. As to the kind of experiment: normalised response (% of control), CellTox Green; higher = less cell death (100 = DMSO, 0 = benzethonium chloride kill control). Conditions: incubation time: 72 h. The procedure, abridged:
(§1)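 Normalised signals at single concentrations make up the values. They come from breast cancer cell lines seeded (20 µl suspension) into 384-well plates with compound at 5 concentrations in 10-fold steps over a compound-specific 10,000-fold range, incubated 72 h, and read for CellTox Green fluorescence then CellTiter-Glo luminescence. Each plate was normalised to 0.1 % DMSO (100) and a positive kill control (0).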

Assay [2] concerns CAL-120. The assay is described as above. Particulars: incubation time: 72 h. A digest of the protocol: as §1
For assay [3], the system named is MFM-223. The description is as above. Conditions: incubation time: 72 h. The procedure, abridged: as §1
Assay [4] relates to HCC1937. The description is as above. Particulars: incubation time: 72 h. The procedure, abridged: as §1
The test system of assay [5] is HCC1143. Described as above. Conditions: incubation time: 72 h. The procedure, abridged: as §1
Assay [6] relates to DU-4475. The assay is described as above. Particulars: incubation time: 72 h. A digest of the protocol: as §1
Assay [7] deals with HCC1599. The description is as above. Particulars: incubation time: 72 h. The procedure, abridged: as §1
The test system of assay [8] is MDA-MB-453. The assay is described as above. Particulars: incubation time: 72 h. The procedure, abridged: as §1
For assay [9], the system named is MDA-MB-468. The assay is described as above. Particulars: incubation time: 72 h. The procedure, abridged: as §1
Assay [10] deals with MDA-MB-231. The description is as above. Particulars: incubation time: 72 h. The procedure, abridged: as §1
The test system of assay [11] is Hs578T. The assay is described as above. Conditions: incubation time: 72 h. A digest of the protocol: as §1
The subject of assay [12] is BT-549. The description is as above. Conditions: incubation time: 72 h. The procedure, abridged: as §1
Assay [13] deals with CAL-51. The assay is described as above. Conditions: incubation time: 72 h. The procedure, abridged: as §1
In assay [14] the test system is BT-474. Described as above. Particulars: incubation time: 72 h. The procedure, abridged: as §1
Assay [15] deals with MCF-10A. Described as above. Particulars: incubation time: 72 h. A digest of the protocol:
as §1

The subject of assay [16] is CAL-148. The assay is described as above. Conditions: incubation time: 72 h. The procedure, abridged:
as §1

Assay [17] has as its system CAL-85-1. The description is as above. Conditions: incubation time: 72 h. A digest of the protocol: as §1
In assay [18] the test system is HDQ-P1. The description is as above. Particulars: incubation time: 72 h. The procedure, abridged: as §1
For assay [19], the system named is MDA-MB-436. As to the kind of experiment: normalised response (% of control), CellTiter-Glo; higher = more viable cells (100 = DMSO, 0 = benzethonium chloride kill control). Conditions: incubation time: 72 h. The procedure, abridged: as §1
For assay [20], the system named is HCC1937. The assay is described as above. Conditions: incubation time: 72 h. A digest of the protocol:
as §1

Assay [21] deals with HCC1143. The description is as above. Particulars: incubation time: 72 h. A digest of the protocol:
as §1

The test system of assay [22] is DU-4475. The description is as above. Particulars: incubation time: 72 h. The procedure, abridged:
as §1

The subject of assay [23] is MDA-MB-468. The description is as above. Conditions: incubation time: 72 h. A digest of the protocol:
as §1

For assay [24], the system named is Hs578T. The assay is described as above. Conditions: incubation time: 72 h. A digest of the protocol: as §1
The test system of assay [25] is CAL-148. The description is as above. Particulars: incubation time: 72 h. A digest of the protocol: as §1
The test system of assay [26] is CAL-85-1. Described as above. Conditions: incubation time: 72 h. The procedure, abridged: as §1
Assay [27] deals with Hs578T. As to the kind of experiment: normalised viability (% of control), CellTiter-Blue; higher = more viable cells (about 100 = DMSO control). Particulars: incubation time: 72 h. The procedure, abridged: (§2)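 Plates were quality-checked by Z'-factor and normalised to vehicle (100) and a positive kill control (0). The underlying assay incubated breast cancer cell lines for 72 h on 384-well plates with compound, then added 2.5 µl CellTiter-Blue for 2 h at 37 °C and read at 560/590 nm. The value is normalised viability at a single listed concentration of the series.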

In assay [28] the test system is HCC1143. Described as above. Conditions: 10 nM; incubation time: 72 h. The procedure, abridged:
as §2

As for `C[C@]12C=CC(=O)C=C1CC[C@@H]1[C@@H]2[C@@H](O)C[C@@]2(C)[C@H]1CC[C@]2(O)C(=O)CO` [Prednisolone] (10000 nM), the normalised response is 60.2% in assay [1]; 99.8% in [2]; 99.7% in [3]; 56.3% in assay [4]; 51% in assay [5]; 100% in [6]. The normalised response came out at 97.9% in assay [7]; 94.6% in assay [8]; 154% in [9]; 150% in assay [10]; 66.8% in assay [11]; 90.8% in assay [12]. The normalised response in [13] came to 102%; in assay [14] it was 101%; in assay [15], 100%; in [16], 101%; in assay [17], 84.1%; in assay [18] it was 57.2%. Moreover, the normalised response in [19] is 104%; in assay [20], 101%; in [21] it was 112%; in assay [22], 104%; in assay [23], 113%; in assay [24], 109%. Moreover, the normalised response in assay [25] turned out to be 111%; in assay [26], 118%.
Consider `CNC(=O)c1cc(Oc2ccc(NC(=O)Nc3ccc(Cl)c(C(F)(F)F)c3)cc2)ccn1` [Sorafenib], for which the normalised viability in [27] (1 nM) is 126% and 102%; in assay [27] (100 nM) it was 109% and 123%; in assay [27] (1000 nM), 101% and 87.8%; in assay [28], 101% and 80.6%.
On to `CNC(=O)c1cc(Oc2ccc(NC(=O)Nc3ccc(Cl)c(C(F)(F)F)c3)cc2)ccn1` [Sorafenib] (1000 nM), for which the normalised response in assay [1] stood at 87.5%; in assay [2], 101%; in [3], 92.8%; in assay [4], 99.2%; in assay [5] it was 101%; in [6] it was 97.7%. Further, the normalised response in [7] turned out to be 97.5%; in [8], 102%; in assay [9], 70.1%; in [10] it was 100%; in assay [11] it was 118%; in assay [12], 111%. For the same molecule, the normalised response in assay [13] stood at 115%; in assay [14], 100%; in assay [15], 89%; in [16], 74.5%; in [17] it was 89.9%; in assay [18], 103%. Besides, the normalised response came out at 120% in [19]; 102% in [20]; 106% in assay [21]; 98.3% in [22]; 112% in assay [23]; 96% in assay [24]. Besides, the normalised response in [25] was found to be 113%; in [26], 108%.
For `CCN(CC)CCNC(=O)c1c(C)[nH]c(/C=C2\C(=O)Nc3ccc(F)cc32)c1C` [Sunitinib] (1000 nM), the normalised response is 106% in assay [1]; 98.2% in [2]; 99.2% in assay [3]; 93.9% in [4]; 82.8% in [5]; 99.7% in [6]. Further, the normalised response in assay [7] stood at 105%; in assay [8], 104%; in assay [9], 66.4%; in assay [10], 124%; in [11], 95.9%; in [12], 104%. In addition, the normalised response came to 106% in assay [13]; 95% in assay [14]; 80.6% in assay [15]; 85.4% in [16]; 66.5% in [17]; 101% in assay [18]. The normalised response in assay [19] is 93.7%; in [20] it was 91.7%; in assay [21], 103%; in assay [22], 94.2%; in assay [23], 107%; in [24], 97.5%. Besides, the normalised response in assay [25] worked out at 113%; in assay [26] it was 107%.
Regarding `CC[C@@]1(O)C(=O)OCc2c1cc1n(c2=O)Cc2cc3c(CN(C)C)c(O)ccc3nc2-1` [Topotecan], the normalised viability turned out to be 132% in assay [27] (1 nM), 102% in [27] (100 nM), 69.4% in assay [27] (1000 nM) and 79.7% in [28].
